Literature values, collected in patent US5603954A (priority 1995, dated 1997).

What was measured:
[1] = metabolites appear after dosing in the plasma
[2] = system: patients with chronic peripheral arterial disease

CC(=O)CCCCn1c(=O)c2c(ncn2C)n(C)c1=O [pentoxifylline, 3,7-dihydro-3,7-dimethyl-1-(5-oxohexyl)-1H-purine-2,6-dione]
first-pass effect [1]: undergoes a first-pass effect | blood flow to the affected microcirculation [2]: increases the blood flow | tissue oxygenation [2]: enhances tissue oxygenation
